The target in experiment [1] is K-Ras^G12C : hSOS1 interaction (Homo sapiens, UniProt Q07889). The experiment in a line: Biochemical assay 1: K-Ras^G12C interaction assay with hSOS1 (HTRF). It counts as binding. To be noted: read-out: Assay 1 (KRAS-SOS Interaction) activity expressed as IC50. As to the method: Biochemical assay 1: K-Ras^G12C Interaction Assay with hSOS1
This assay quantifies the equilibrium interaction of human SOS1 with K-Ras^Gl2C. Detection of the interaction is achieved by measuring homogenous time-resolved fluorescence resonance energy transfer (HTRF) from antiGST-Europium (FRET donor) bound to GST-K-Ras^G12C to anti-6His-XL665 bound to His-tagged hSOS1 (FRET-acceptor).
The assay buffer contained 5 mM HEPES pH 7.4 (Applichem), 150 mM NaCl (Sigma), 10 mM EDTA (Promega), 1 mM DTT (Thermofisher), 0.05% BSA Fraction V, pH 7.0, (ICN Biomedicals), 0.0025% (v/v) Igepal (Sigma) and 100 mM KF (FLUKA).
Concentrations of protein batches used were optimized to be within the linear range of the HTRF signal. A Ras working solution was prepared in assay buffer containing typically 10 nM GST-hK-RasG12C and 2 nM antiGST-Eu(K) (Cisbio, France). A SOS working solution was prepared in assay buffer containing typically 20 nM His-hSOS1 and 10 nM anti-6His-XL665 (Cisbio, France). An inhibitor control solution was prepared in assay buffer containing 10 nM anti-6His-XL665 without hSOS1.
(§1) Fifty nl of a 100-fold concentrated solution of the test compound in DMSO were transferred into a black microtiter test plate (384 or 1536, Greiner Bio-One, Germany). For this, either a Hummingbird liquid handler (Digilab, MA, USA) or an Echo acoustic system (Labcyte, CA, USA) was used.
All steps of the assay were performed at 20° C. A volume of 2.5 μl of the Ras working solution was added to all wells of the test plate using a Multidrop dispenser (Thermo Labsystems). After 2 min preincubation, 2.5 μl of the SOS working solution were added to all wells except for those wells at the side of the test plate that were subsequently filled with 2.5 μl of the inhibitor control solution. After 60 min incubation the fluorescence was measured with a Pherastar (BMG, Germany) using the HTRF module (excitation 337 nm, emission 1: 620 nm, emission 2: 665 nm).
(§2) IC50 values were calculated by 4-Parameter fitting using a commercial software package (Genedata Screener, Switzerland).
(In general: In TR-FRET formats the signal depends on donor and acceptor labels being close together.)

Experiment [2] addresses human SOS1 (nucleotide exchange of K-Ras^G12C) (Homo sapiens, UniProt Q07889). The experiment is described as follows: Biochemical assay 2: K-Ras^G12C activation assay by hSOS1 at high GTP concentration (HTRF). Conditions: read-out: Assay 2 (KRAS-Activation by SOS high GTP) activity expressed as % inhibition at 20 μM; high GTP; at 20 μM.
Description: Biochemical Assay 2: K-Ras^G12C Activation Assay by hSOS1 at High GTP Concentration
This assay quantifies human SOS1-mediated nucleotide exchange of K-Ras^G12C preloaded with a fluorescent […] and in presence of an excess of free GTP. Loaded hK-Ras^G12C generates a high HTRF-signal by energy transfer from antiGST-Terbium (FRET donor) bound to K-Ras to the loaded fluorescent GDP analog (FRET-acceptor). SOS1 activity exchanges the fluorescent GDP for non-fluorescent GTP and therefore leads to a reduction of the HTRF signal.
The fluorescent GDP-analog EDA-GDP-Dy647P1 (2′/3′-O-(2-Aminoethyl-carbamoyl)-guanosine-5′-diphosphate labelled with Dy647P1 (Dyomics GmbH, Germany)) was synthesized by Jena Biosciences GmbH (Germany) and supplied as a 1 mM aqueous solution.
Concentrations of protein batches used were optimized to be within the linear range of the HTRF signal.
Preparation of GST-tagged hK-Ras^Gl2C loaded with fluorescent nucleotide was performed as follows: incubation of 11.5 μM hK-Ras^Gl2C with 5-fold excess GDP-Dy647 nucleotide (54 μM) in 500 μl NLS-buffer (RAS activation Kit Jena Bioscience, Kat. #PR-950) for 10 min at 37° C. Addition of 20 μl 1 M MgCl2 (Sigma) to final 40 mM and store on ice. Purification into buffer (10 mM HEPES pH 7.4 (Applichem), 150 mM NaCl (Sigma), 5 mM MgCl2 (Sigma)) by use of a PD-Minitrap desalting column (GE Healthcare). Concentration of 1 ml purified hK-Ras-GDP-Dy647 is approx. 4-5 μM.
(§3) The assay buffer contained 10 mM HEPES pH 7.4 (Applichem), 150 mM NaCl (Sigma), 5 mM MgCl2 (Sigma), 1 mM DTT (Thermofisher), 0.05% BSA Fraction V, pH 7.0, (ICN Biomedicals), 0.0025% (v/v) Igepal (Sigma).
A Ras working solution was prepared in assay buffer containing typically 80 nM loaded GST-hK-RasG12C-EDA-GDP-Dy647P1 and 2 nM antiGST-Tb (Cisbio, France). A hSOS1 working solution was prepared in assay buffer containing typically 8 nM His-hSOS1 and 100 μM GTP (Jena Bioscience, Germany). An inhibitor control solution was prepared in assay buffer containing the same concentration of […].
as §1
All steps of the assay were performed at 20° C. A volume of 2.5 μl of the Ras working solution was added to all wells of the test plate using a Multidrop dispenser (Thermo Labsystems). After 2 min preincubation, 2.5 μl of the hSOS1 working solution were added to all wells except for those wells at the side of the test plate that were subsequently filled with 2.5 μl of the inhibitor control solution. After 20 min incubation the fluorescence was measured with a Pherastar (BMG, Germany) using the HTRF module (excitation 337 nm, emission 1: 620 nm, emission 2: 665 nm).
as §2

The target in experiment [3] is human SOS1 (loading of human K-Ras^G12C-GDP with fluorescent GTP-analog) (Homo sapiens, UniProt Q07889). The experiment is described as follows: Biochemical assay 3: K-Ras^G12C activation assay by hSOS1 (HTRF). To be noted: no GTP; for inhibition at 20 µM: read-out: Assay 3 (KRAS-Activation by SOS no GTP) activity expressed as % inhibition at 20 μM.
Description: Biochemical assay 3: K-Ras^G12C Activation Assay by hSOS1
K-Ras is a small GTPase that can bind GDP and GTP. The guanine nucleotide exchange factor SOS catalyzes the activation of K-Ras by promoting the exchange of GDP to GTP. SOS binds to K-Ras-GDP thereby opening the GDP-binding pocket to facilitate GDP release. Rebinding of excess nucleotide leads to dissociation of the K-Ras-SOS intermediate complex leaving K-Ras loaded with the nucleotide.
This assay quantifies human SOS1-mediated loading of human K-Ras^G12C-GDP with a fluorescent GTP-analog. Detection of successful loading is achieved by measuring homogenous time-resolved fluorescence resonance energy transfer (HTRF) from antiGST-Terbium (FRET donor) bound to GST-K-RasG12C to the loaded fluorescent GTP analog (FRET-acceptor).
The fluorescent GTP-analog EDA-GTP-Dy647P1 (2′/3′-O-(2-Aminoethyl-carbamoyl)-guanosine-5′-triphosphate labelled with Dy647P1 (Dyomics GmbH, Germany)) was synthesized by Jena Biosciences GmbH (Germany) and supplied as a 1 mM aqueous solution.
as §3
Concentrations of protein batches used were optimized to be within the linear range of the HTRF signal. A Ras working solution was prepared in assay buffer containing typically 100 nM GST-hK-RasG12C and 2 nM antiGST-Tb (Cisbio, France). A hSOS1 working solution was prepared in assay buffer containing typically 20 nM hSOS1 and 200 nM EDA-GTP-Dy647P1. An inhibitor control solution was prepared in assay buffer containing 200 nM EDA-GTP-Dy647P1 without hSOS1.
as §1
All steps of the assay were performed at 20° C. A volume of 2.5 μl of the Ras working solution was added to all wells of the test plate using a Multidrop dispenser (Thermo Labsystems). After 10 min preincubation, 2.5 μl of the hSOS1 working solution were added to all wells except for those wells at the side of the test plate that were subsequently filled with 2.5 μl of the inhibitor control solution. After 30 min incubation the fluorescence was measured with a Pherastar (BMG, Germany) using the HTRF module (excitation 337 nm, emission 1: 620 nm, emission 2: 665 nm).
as §2

A word on the IC50: it is the concentration that gives 50% inhibition. In the case of `COc1cc2nc(C)nc(N[C@@H](C)c3ccc(-c4ccc5c(c4)OCO5)s3)c2cc1OC` (racemic) [Example 163, N-{1-[5-(1,3-benzodioxol-5-yl)thiophen-2-yl]ethyl}-6,7-dimethoxy-2-methylquinazolin-4-amine], the IC50 in experiment [1] was determined as 13.6 µM. As a reminder, the inhibition is the drop in the measured response relative to a control, in per cent. Turning to `COc1cc2nc(C)nc(N[C@@H](C)c3ccc(-c4ccc5c(c4)OCO5)s3)c2cc1OC` (stereo in doubt) [Example 163, N-{1-[5-(1,3-benzodioxol-5-yl)thiophen-2-yl]ethyl}-6,7-dimethoxy-2-methylquinazolin-4-amine], the figures for the inhibition at 20 µM in experiment [2] and in experiment [3] were 42% and 35%, respectively. `COc1cccc(-c2ccc([C@H](C)Nc3nc(C)nc4cc(OC)c(OC)cc34)s2)c1` (stereo in doubt) [Example 167, 6,7-dimethoxy-N-{1-[5-(3-methoxyphenyl)thiophen-2-yl]ethyl}-2-methylquinazolin-4-amine]: the inhibition at 20 µM in experiment [2] was 40%; in experiment [3], 37%. Regarding `COc1cc2nc(C)nc(N[C@@H](C)c3ccc(-c4cccc(C(F)(F)F)c4)s3)c2cc1OC` (racemic) [Example 168, 6,7-dimethoxy-2-methyl-N-[1-{5-[3-(trifluoromethyl)phenyl]thiophen-2-yl}ethyl]quinazolin-4-amine], the IC50 in experiment [1] amounted to 12.2 µM. For the molecule `CCCNC(=O)c1ccc(-c2ccc([C@H](C)Nc3nc(C)nc4cc(OC)c(OC)cc34)s2)cc1` (stereo in doubt) [Example 141, 4-(5-{1-[(6,7-dimethoxy-2-methylquinazolin-4-yl)amino]ethyl}thiophen-2-yl)-N-propylbenzamide], the inhibition at 20 µM in experiment [2] is 25%.

As for `COc1cc2nc(C)nc(N[C@@H](C)c3ccc(-c4ccc5c(c4)OCCO5)s3)c2cc1OC` (stereo in doubt) [Example 98, N-{1-[5-(2,3-dihydro-1,4-benzodioxin-6-yl)thiophen-2-yl]ethyl}-6,7-dimethoxy-2-methylquinazolin-4-amine], the inhibition at 20 µM amounted to 43% in experiment [2] and 24% in experiment [3]. `COc1cc2nc(C)nc(N[C@@H](C)c3ccc(-c4cccc(OC(F)(F)F)c4)s3)c2cc1OC` (racemic) [Example 151, 6,7-dimethoxy-2-methyl-N-[1-{5-[3-(trifluoromethoxy)phenyl]thiophen-2-yl}ethyl]quinazolin-4-amine]: the concentration for half-maximal inhibition (IC50) in experiment [1] stood at 10.4 µM; in experiment [3] (read-out: Assay 3 (KRAS-Activation by SOS no GTP) activity expressed as IC50), 13.3 µM. With `COc1cc2nc(C)nc(N[C@@H](C)c3ccc(-c4ccc5c(ccn5C)c4)s3)c2cc1OC` (stereo in doubt) [Example 49, 6,7-dimethoxy-2-methyl-N-{1-[5-{1-methyl-1H-indol-5-yl)thiophen-2-yl]ethyl}quinazolin-4-amine], the inhibition at 20 µM in experiment [2] was found to be 35%; in experiment [3], 36%. In the case of `COc1cccc(-c2ccc([C@H](C)Nc3nc(C)nc4cc(OC)c(OC)cc34)s2)c1` (racemic) [Example 167, 6,7-dimethoxy-N-{1-[5-(3-methoxyphenyl)thiophen-2-yl]ethyl}-2-methylquinazolin-4-amine], the concentration for half-maximal inhibition (IC50) in experiment [1] was found to be 16.9 µM. The same measure, in the same setting: the value for `COc1cc2nc(C)nc(N[C@@H](C)c3ccc(-c4ccc5c(ccn5C)c4)s3)c2cc1OC` (racemic) [Example 49, 6,7-dimethoxy-2-methyl-N-{1-[5-{1-methyl-1H-indol-5-yl)thiophen-2-yl]ethyl}quinazolin-4-amine] was 19.6 µM; that for `COc1cc2nc(C)nc(N[C@@H](C)c3ccc(-c4ccc5c(c4)OCCO5)s3)c2cc1OC` (racemic) [Example 98, N-{1-[5-(2,3-dihydro-1,4-benzodioxin-6-yl)thiophen-2-yl]ethyl}-6,7-dimethoxy-2-methylquinazolin-4-amine] was 16.1 µM. In the case of `COc1cc2nc(C)nc(N[C@@H](C)c3ccc(-c4cccc(C(F)(F)F)c4)s3)c2cc1OC` (stereo in doubt) [Example 168, 6,7-dimethoxy-2-methyl-N-[1-{5-[3-(trifluoromethyl)phenyl]thiophen-2-yl}ethyl]quinazolin-4-amine], the inhibition at 20 µM was 38% in experiment [2] and 32% in experiment [3]. With `COc1cc2nc(C)nc(N[C@@H](C)c3ccc(-c4cccc(OC(F)(F)F)c4)s3)c2cc1OC` (stereo in doubt) [Example 151, 6,7-dimethoxy-2-methyl-N-[1-{5-[3-(trifluoromethoxy)phenyl]thiophen-2-yl}ethyl]quinazolin-4-amine], the inhibition at 20 µM in experiment [2] was 51%.

For the origin of these results see patent publication US20240083857A1, “2-Methyl-Quinazolines” (Bayer Pharma Aktiengesellschaft, priority 2017, published 2024).
